Laboratory results from patent US20220226270A1, “VERY-LONG-CHAIN POLYUNSATURATED FATTY ACIDS, ELOVANOID HYDROXYLATED DERIVATIVES, AND METHODS OF USE” (Board of Supervisors of Louisiana State University and …, priority 2019, published 2022).

System: primary human RPE cells
Assay: UOS-induced cell death in primary human RPE cells (Hoechst staining)
Format: cell-based
Settings: for UOS-induced primary human RPE cell death: UOS for 16 h + 32:6n3 or 34:6n3 (FIG. 8C); for cell death (apoptosis): UOS with H2O2 (800 μM), 16 h, VLC-PUFAs 3 μM each, NPD1 200 nM, UOS alone 50% cell death
Description: Exposure of RPE cells to UOS and VLC-PUFA: For cell viability assay experiments hRPE cells were treated concomitantly with NPD1 (200 nM), 32-6, 34-6 (3 μM each) fatty acids or both 32-6 and 34-6 simultaneously. The hRPE medium was supplemented with 3 μM of 32-6 and 34-6 for the entire duration of the experiment. 15 lox-1 inhibitor (10 μM) was added to the cells 1 hour prior the OS induction and kept throughout the experiment. Cells were fixed with 4% PFA and stained with Hoescht.
To assess cell death, hRPE and ARPE-19 cells were fixed with methanol for 15 mins, washed with 1× PBS then loaded with 2 μM Hoechst dissolved in a Locke's solution (Promega) and incubated for another 15 mins before imaging. Cells were then viewed by using a Zeiss LSM 510 confocal microscope under UV fluorescence. Images were recorded and cell apoptosis was assessed by using an automated unbiased method.
To test the efficacy of 32:6n3 and 34:6n3 VLC-PUFAs to modulate human RPE cell homeostasis and survival rates, human RPE cells undergoing UOS were incubated with both VLC-PUFAs (3 μM each) and NPD1 (200 nM) 16 h. The addition of H2O2 (800 μM) induced apoptosis (50% cell death).
hRPE cells, formerly serum deprived for 12 h, were incubated with the 15 lipoxygenase 1 (15-LOX-1) inhibitor (PD146176) (10 μM for 1 h), then bathed with 600 μM H2O2/TNF-α in conjunction with a mixture of 32:6n3 and 34:6n3 (3 μM each) for 16 h. The 15-LOX-1 inhibitor sensitizes cells; therefore, a lower concentration of H2O2 than in the cytoprotection experiment was used.

| SMILES | UOS-induced primary human RPE cell death | cell death (apoptosis) [%] |
| --- | --- | --- |
| CC/C=C\C/C=C\C/C=C\C/C=C\C/C=C\C/C=C\CCCCCCCCCCCCC(=O)O [32:6n3, (14Z,17Z,20Z,23Z,26Z,29Z)-dotriaconta-14,17,20,23,26,29-hexaenoic acid] | cell death was prevented | 4 |
| CC/C=C\C/C=C\C/C=C\C/C=C\C/C=C\C/C=C\CCCCCCCCCCCCCCC(=O)O [34:6n3, (16Z,19Z,22Z,25Z,28Z,31Z)-tetratriaconta-16,19,22,25,28,31-hexaenoic acid] | cell death was prevented | 18 |
